US10017495B2, “Therapeutically active compounds and their methods of use” (AGIOS PHARMACEUTICALS, INC, priority 2013, dated 2018)

Key:
IDH2 R140Q = molecular target: T1, IDH2 R140Q (Homo sapiens, UniProt P48735, R140Q); experiment: IDH2 R140Q enzymatic assay (cofactor depletion assay, diaphorase/resazurin readout); format: biochemical; conditions: read-out: Enz R140Q
T1 sequence (P48735 40-452 R140Q): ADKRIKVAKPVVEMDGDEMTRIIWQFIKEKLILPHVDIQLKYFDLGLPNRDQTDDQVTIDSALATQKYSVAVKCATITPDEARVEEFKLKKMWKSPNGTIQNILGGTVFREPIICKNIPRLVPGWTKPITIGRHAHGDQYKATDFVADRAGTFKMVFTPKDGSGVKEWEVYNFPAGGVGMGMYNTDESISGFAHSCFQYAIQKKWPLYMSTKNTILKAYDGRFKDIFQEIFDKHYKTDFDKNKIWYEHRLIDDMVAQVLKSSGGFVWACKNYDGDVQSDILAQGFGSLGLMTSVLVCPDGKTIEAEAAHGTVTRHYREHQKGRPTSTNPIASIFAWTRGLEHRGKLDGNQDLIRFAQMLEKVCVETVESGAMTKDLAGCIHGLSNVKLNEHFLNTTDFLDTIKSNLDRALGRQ
Procedure: [The source words this procedure for another variant and says it was used here with some conditions changed.] Compounds are assayed for IDH2 R172K inhibitory activity through a cofactor depletion assay. […] The reaction is terminated by the addition of a second enzyme, diaphorase, and a corresponding substrate, resazurin. Diaphorase reduces resazurin to the highly fluorescent resorufin with the concomitant oxidation of NADPH to NADP, both halting the IDH2 reaction by depleting the available cofactor pool and facilitating quantitation of the amount of cofactor remaining after a specific time period through quantitative production of an easily detected fluorophore.
The test compound is then incubated for one hour at room temperature with the enzyme; before starting the IDH2 reaction with the addition of 10 μl of substrate mix containing 50 μM NADPH and 6.3 mM α-KG in the buffer described above. After a further one hour of incubation at room temperature, the reaction is halted and the remaining NADPH measured through conversion of resazurin to resorufin by the addition of 25 μl Stop Mix (36 μg/ml diaphorase enzyme and 60 μM resazurin; in buffer). After one minute of incubation the plate is read on a plate reader at Ex544/Em590.

[1] = tested on: U87MG pLVX-IDH2 R140Q-neo cells; experiment: U87MG pLVX-IDH2 R140Q-Neo cell based assay (2-HG in media by LC-MS); conditions: 48 hours; for IC50: Homo sapiens, U-87 MG
Procedure: U87MG pLVX-IDH2 R140Q-Neo Cell Based Assay.
U87MG pLVX-IDH2 R140Q-neo cells are grown in T125 flasks in DMEM containing 10% FBS, 1× penicillin/streptomycin and 500 μg/mL G418. They are harvested by trypsin and seeded into 96 well white bottom plates at a density of 5000 cell/well in 100 μl/well in DMEM with 10% FBS. No cells are plated in columns 1 and 12. Cells are incubated overnight at 37° C. in 5% CO2. The next day compounds are made up at 2× concentration and 100 ul are added to each cell well. The final concentration of DMSO is 0.2% and the DMSO control wells are plated in row G. The plates are then placed in the incubator for 48 hours. At 48 hours, 100 ul of media is removed from each well and analyzed by LC-MS for 2-HG concentrations. The cell plate is placed back in the incubator for another 24 hours. At 72 hours post compound addition, 10 mL/plate of Promega Cell Titer Glo reagent is thawed and mixed. The cell plate is removed from the incubator and allowed to equilibrate to room temperature. Then 100 ul of reagent is added to each well of media. The cell plate is then placed on an orbital shaker for 10 minutes and then allowed to sit at room temperature for 20 minutes. The plate is then read for luminescence with an integration time of 500 ms to determine compound effects on growth inhibition.

SMILES | IC50 (IDH2 R140Q) [nM] | IC50 [1] [nM] | Cell R140Q [1]
CC(C)Nc1nc(Nc2ccnc(C(F)(F)F)c2)nc(C2=CCCCC2)n1 [Compound 1, 6-(cyclohex-1-en-1-yl)-N2-isopropyl-N4-(2-(trifluoromethyl)pyridin-4-yl)-1,3,5-triazine-2,4-diamine] | < 100 | < 100 | 
CC(C)Nc1nc(Nc2ccnc(C(F)(F)F)c2)nc(C2CCCCC2)n1 [Compound 2] | < 100 | < 100 | 
CC(C)Nc1nc(Nc2ccnc(C(F)(F)F)c2)nc(C(C)(C)C)n1 [Compound 3, 6-(tert-butyl)-N2-isopropyl-N4-(2-(trifluoromethyl)pyridin-4-yl)-1,3,5-triazine-2,4-diamine] | 100 to 1000 | 100 to 1000 | 
CC(C)Nc1nc(Nc2ccnc(C(F)(F)F)c2)nc(C2=CC(=O)CCC2)n1 [Compound 6, 3-(4-(isopropylamino)-6-((2-(trifluoromethyl)pyridin-4-yl)amino)-1,3,5-triazin-2-yl)cyclohex-2-enone] | 100 to 1000 | < 100 | 
CC(C)Nc1nc(Nc2ccnc(C(F)(F)F)c2)nc(C2=CC(O)CCC2)n1 (stereo not shown) [Compound 7, 3-(4-(isopropylamino)-6-((2-(trifluoromethyl)pyridin-4-yl)amino)-1,3,5-triazin-2-yl)cyclohex-2-enol] | < 100 | < 100 | 
CC(C)Nc1nc(Nc2ccnc(C(F)(F)F)c2)nc(C2CCCC(=O)C2)n1 (stereo not shown) [Compound 8, 3-(4-(isopropylamino)-6-((2-(trifluoro-methyl)pyridin-4-yl)amino)-1,3,5-triazin-2-yl)cyclohexanone] | 100 to 1000 | < 100 | 
CC1CC(C)CC(c2nc(Nc3ccnc(C(F)(F)F)c3)nc(NC(C)C)n2)C1 (stereo not shown) [Compound 10] | 100 to 1000 |  | 
CC(C)Nc1nc(Nc2ccnc(C(F)(F)F)c2)nc(C2=CC(=O)NCC2)n1 [Compound 12] | < 100 | 100 to 1000 | 
CC(C)Nc1nc(Nc2ccnc(C(F)(F)F)c2)nc(C2CCNC(=O)C2)n1 (stereo not shown) [Compound 13] | 1000 to 10000 |  | No fit

The next lines start with results.

IC50 (IDH2 R140Q) [nM] | IC50 [1] [nM] | SMILES | Cell R140Q [1]
< 100 | 100 to 1000 | CC(C)Nc1nc(Nc2ccnc(C(F)(F)F)c2)nc(C2CCCC2)n1 [Compound 4, 6-cyclopentyl-N2-isopropyl-N4-(2-(trifluoromethyl)pyridin-4-yl)-1,3,5-triazine-2,4-diamine] | 
< 100 | 100 to 1000 | CC(C)Nc1nc(Nc2ccnc(C(F)(F)F)c2)nc(C2CCC2)n1 [Compound 5, 6-cyclobutyl-N2-isopropyl-N4-(2-(trifluoromethyl)pyridin-4-yl)-1,3,5-triazine-2,4-diamine] | 
< 100 | 100 to 1000 | CC1CCCC(c2nc(Nc3ccnc(C(F)(F)F)c3)nc(NC(C)C)n2)C1 (stereo not shown) [Compound 9] | 
< 100 | < 100 | CC(C)Nc1nc(Nc2ccnc(C(F)(F)F)c2)nc(C2CCCC(O)C2)n1 (stereo not shown) [Compound 11, 3-(4-(isopropylamino)-6-((2-(trifluoromethyl)pyridin-4-yl)amino)-1,3,5-triazin-2-yl)cyclohexanol] | 
